Literature values, collected in patent US20080206336A1, “Novel Composition Comprising Rosiglitazone and Another Antidiabetic Agent” (SB PHARMCO PURERTO RICO INC. The Prentice Hall Corp. System …, priority 2003, published 2008).

Details: acidic conditions of the stomach (around pH 2) versus near neutral conditions of the lower intestine (around pH 7)

pH dependent solubility: marked pH dependent solubility
Compound: CN(CCOc1ccc(CC2SC(=O)NC2=O)cc1)c1ccccn1 (stereo not shown) [Compound A, 5-[4-[2-(N-methyl-N-(2 pyridyl)amino)ethoxy]benzyl]thiazolidine-2,4-dione]
